Assay results: ChEMBL document CHEMBL5209897, “Affinity Phenotypic Cellular Literature for EUbOPEN Chemogenomics Library wave 3” (2023)

How the values were obtained:
[1] = biological target: Rho-associated protein kinase 1 (Homo sapiens, UniProt Q13464); assay: Affinity Phenotypic Cellular interaction (Western Blot (phosphorylation of MYPT at Thr850 in HEK293 cells)) EUB0000134b ROCK1; assay type: cell-based; set-up: mode of action Inhibitor, recommended concentration 1 uM
[2] = biological target: Rho-associated protein kinase 2 (Homo sapiens, UniProt O75116); assay: Affinity Phenotypic Cellular interaction (Western Blot (phosphorylation of MYPT at Thr850 in HEK293 cells)) EUB0000134b ROCK2; assay type: cell-based; set-up: mode of action Inhibitor, recommended concentration 1 uM
[3] = biological target: MAP kinase-activated protein kinase 2 (Homo sapiens, UniProt P49137); assay: Affinity Phenotypic Cellular interaction (Cell-based TNFa assay (MesoScale Discovery; inhibition of LPS stimulated TNFa production in human U937 cells)) EUB0000056c MAPKAPK2; assay type: functional; set-up: mode of action Inhibitor, recommended concentration 1 uM
[4] = biological target: MAP kinase-activated protein kinase 3 (Homo sapiens, UniProt Q16644); assay: Affinity Phenotypic Cellular interaction (Cell-based TNFa assay (MesoScale Discovery; inhibition of LPS stimulated TNFa production in human U937 cells)) EUB0000056c MAPKAPK3; assay type: functional; set-up: mode of action Inhibitor, recommended concentration 1 uM
[5] = biological target: MAP kinase-activated protein kinase 5 (Homo sapiens, UniProt Q8IW41); assay: Affinity Phenotypic Cellular interaction (Cell-based TNFa assay (MesoScale Discovery; inhibition of LPS stimulated TNFa production in human U937 cells)) EUB0000056c MAPKAPK5; assay type: functional; set-up: mode of action Inhibitor, recommended concentration 1 uM
[6] = biological target: NUAK family SNF1-like kinase 2 (Homo sapiens, UniProt Q9H093); assay: Affinity Phenotypic Cellular interaction (Western Blot (inhibition of phosphorylation of MYPT1 (myosin […] subunit 1) at Ser445 in HEK293 cells)) EUB0000627a NUAK2; assay type: cell-based; set-up: mode of action Inhibitor, recommended concentration 1 uM
[7] = biological target: NUAK family SNF1-like kinase 1 (Homo sapiens, UniProt O60285); assay: Affinity Phenotypic Cellular interaction (Western Blot (inhibition of phosphorylation of MYPT1 (myosin […] subunit 1) at Ser445 in HEK293 cells)) EUB0000627a NUAK1; assay type: cell-based; set-up: mode of action Inhibitor, recommended concentration 1 uM
CREB-binding protein = CREB-binding protein (Homo sapiens, UniProt Q92793); assay: Affinity Phenotypic Cellular interaction (Inhibition of H3K27Ac (DU-145 cells)) EUB0000326a CREBBP
[8] = biological target: Histone acetyltransferase p300 (Homo sapiens, UniProt Q09472); assay: Affinity Phenotypic Cellular interaction (Inhibition of H3K27Ac (DU-145 cells)) EUB0000326a EP300
[9] = biological target: Inhibitor of nuclear factor kappa-B kinase subunit epsilon (Homo sapiens, UniProt Q14164)
[10] = biological target: Serine/threonine-protein kinase TBK1 (Homo sapiens, UniProt Q9UHD2)
[11] = biological target: Phosphatidylinositol 4,5-bisphosphate 3-kinase catalytic subunit delta isoform (Homo sapiens) (UniProt O00329); conditions: Affinity Phenotypic Cellular Source Knowledge https://doi.org/10.1093/jnci/djj133
[12] = biological target: Phosphatidylinositol 4,5-bisphosphate 3-kinase catalytic subunit gamma isoform (Homo sapiens, UniProt P48736); conditions: Affinity Phenotypic Cellular Source Knowledge https://doi.org/10.1093/jnci/djj133
[13] = biological target: Phosphatidylinositol 4,5-bisphosphate 3-kinase catalytic subunit alpha isoform (Homo sapiens) (UniProt P42336); conditions: Affinity Phenotypic Cellular Source Knowledge https://doi.org/10.1093/jnci/djj133
[14] = biological target: Phosphatidylinositol 4,5-bisphosphate 3-kinase catalytic subunit beta isoform (Homo sapiens, UniProt P42338); conditions: Affinity Phenotypic Cellular Source Knowledge https://doi.org/10.1093/jnci/djj133
[15] = biological target: Histone-lysine N-methyltransferase KMT5C (Homo sapiens, UniProt Q86Y97); assay: Affinity Phenotypic Cellular interaction (Western Blot (decrease in di-methylation of H4K20me in U20S cells)) EUB0000193b SUV420H2; assay type: cell-based; set-up: mode of action Inhibitor, recommended concentration 1 uM
[16] = biological target: Histone-lysine N-methyltransferase KMT5B (Homo sapiens, UniProt Q4FZB7); assay: Affinity Phenotypic Cellular interaction (Western Blot (decrease in di-methylation of H4K20me in U20S cells)) EUB0000193b SUV420H1; assay type: cell-based; set-up: mode of action Inhibitor, recommended concentration 1 uM
[17] = biological target: Bromodomain adjacent to zinc finger domain protein 2A (Homo sapiens, UniProt Q9UIF9); assay: Affinity Phenotypic Cellular interaction (FRAP assay (displacement of BAZ2A/B from chromatin in SAHA-treated human U2OS cells, transfected with GFP-BAZ2A fusion construct)) EUB0000267b BAZ2A; set-up: mode of action Negative control for GSK2801, recommended concentration 1 uM
Activin receptor type-1B = Activin receptor type-1B (Homo sapiens, UniProt P36896); assay: Affinity Phenotypic Cellular interaction (Western blot (inhibition of SMAD2/3 phosphorylation)) EUB0000312b ACVR1B; set-up: mode of action Inhibitor, recommended concentration 1 uM
[18] = biological target: Histone-lysine N-methyltransferase EHMT1 (Homo sapiens, UniProt Q9H9B1); assay: Affinity Phenotypic Cellular interaction (In-Cell Western assay (H3K9Me2 antibody immunofluorescence in PC3 cells)) EUB0000212b EHMT1/GLP; assay type: cell-based; set-up: mode of action Inhibitor, recommended concentration 1 uM
[19] = biological target: Dual specificity protein kinase CLK4 (Homo sapiens, UniProt Q9HAZ1); assay: Affinity Phenotypic Cellular interaction (Changed alternative splicing pattern determined by mRNAseq) EUB0000321b CLK4; assay type: functional; set-up: mode of action Inhibitor, recommended concentration 100 nM
[20] = biological target: Dual specificity protein kinase CLK3 (Homo sapiens, UniProt P49761); assay: Affinity Phenotypic Cellular interaction (Changed alternative splicing pattern determined by mRNAseq) EUB0000321b CLK3; assay type: functional; set-up: mode of action Inhibitor, recommended concentration 100 nM
[21] = biological target: Dual specificity protein kinase CLK1 (Homo sapiens, UniProt P49759); assay: Affinity Phenotypic Cellular interaction (Changed alternative splicing pattern determined by mRNAseq) EUB0000321b CLK1; assay type: functional; set-up: mode of action Inhibitor, recommended concentration 100 nM
Aurora kinase B = Aurora kinase B (Homo sapiens, UniProt Q96GD4); assay: Affinity Phenotypic Cellular interaction (ELISA (histone H3 serine phosphorylation in A549 cells)) EUB0000674a AURKB; assay type: cell-based; set-up: mode of action Inhibitor, recommended concentration 1 uM
Aurora kinase C = Aurora kinase C (Homo sapiens, UniProt Q9UQB9); assay: Affinity Phenotypic Cellular interaction (ELISA (histone H3 serine phosphorylation in A549 cells)) EUB0000674a AURKC; assay type: cell-based; set-up: mode of action Inhibitor, recommended concentration 1 uM
[22] = biological target: Lysine-specific demethylase 6A (Homo sapiens, UniProt O15550); assay: Affinity Phenotypic Cellular interaction (Inhibition of TNF release (in LPS stimulated human macrophages derived from PBMC)) EUB0000217b KDM6A/UTX; assay type: functional; set-up: mode of action Pro-drug of GSK-J1, recommended concentration 100 nM
[23] = biological target: Histone-lysine N-methyltransferase SMYD3 (Homo sapiens, UniProt Q9H7B4); assay: Affinity Phenotypic Cellular interaction (Immunoblot (inhibition of MAP3K2 methylation in HeLa cells)) EUB0000221b SMYD3; assay type: cell-based; set-up: mode of action Peptide-competitive inhibitor, recommended concentration 1 uM

Sequence of Activin receptor type-1B (P36896 whole entry): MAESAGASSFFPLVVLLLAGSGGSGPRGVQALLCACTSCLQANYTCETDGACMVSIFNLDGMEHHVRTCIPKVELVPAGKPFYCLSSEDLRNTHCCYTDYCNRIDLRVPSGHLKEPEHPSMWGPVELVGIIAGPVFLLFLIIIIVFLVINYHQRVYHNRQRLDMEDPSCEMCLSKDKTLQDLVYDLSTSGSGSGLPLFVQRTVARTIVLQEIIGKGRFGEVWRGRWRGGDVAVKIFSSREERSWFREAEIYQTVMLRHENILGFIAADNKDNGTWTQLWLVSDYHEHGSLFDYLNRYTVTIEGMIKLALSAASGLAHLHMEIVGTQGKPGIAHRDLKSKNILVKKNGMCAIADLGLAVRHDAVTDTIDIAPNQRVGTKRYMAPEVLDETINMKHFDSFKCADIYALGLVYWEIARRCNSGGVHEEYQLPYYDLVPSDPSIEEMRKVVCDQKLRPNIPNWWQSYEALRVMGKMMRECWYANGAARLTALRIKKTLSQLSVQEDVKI
Sequence of Serine/threonine-protein kinase TBK1 (Q9UHD2 whole entry, canonical isoform): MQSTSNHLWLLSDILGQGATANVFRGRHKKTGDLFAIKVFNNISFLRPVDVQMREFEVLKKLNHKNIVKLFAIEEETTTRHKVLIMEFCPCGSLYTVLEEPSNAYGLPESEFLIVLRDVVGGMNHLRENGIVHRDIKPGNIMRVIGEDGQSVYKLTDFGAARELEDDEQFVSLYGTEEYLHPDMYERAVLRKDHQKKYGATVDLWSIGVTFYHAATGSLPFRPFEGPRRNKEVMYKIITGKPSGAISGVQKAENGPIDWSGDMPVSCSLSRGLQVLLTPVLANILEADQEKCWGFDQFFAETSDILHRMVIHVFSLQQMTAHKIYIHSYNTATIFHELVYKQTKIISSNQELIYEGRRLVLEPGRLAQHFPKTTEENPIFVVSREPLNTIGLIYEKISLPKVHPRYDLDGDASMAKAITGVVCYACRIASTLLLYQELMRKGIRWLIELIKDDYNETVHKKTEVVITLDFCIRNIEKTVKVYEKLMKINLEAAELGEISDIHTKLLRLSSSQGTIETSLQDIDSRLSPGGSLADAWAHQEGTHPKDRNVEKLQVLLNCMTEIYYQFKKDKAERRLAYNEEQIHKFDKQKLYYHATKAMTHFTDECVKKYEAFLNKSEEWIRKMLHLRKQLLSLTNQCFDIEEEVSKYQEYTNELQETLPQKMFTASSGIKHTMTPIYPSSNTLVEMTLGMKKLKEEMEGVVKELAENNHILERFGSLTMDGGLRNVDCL
Sequence of Aurora kinase C (Q9UQB9 whole entry): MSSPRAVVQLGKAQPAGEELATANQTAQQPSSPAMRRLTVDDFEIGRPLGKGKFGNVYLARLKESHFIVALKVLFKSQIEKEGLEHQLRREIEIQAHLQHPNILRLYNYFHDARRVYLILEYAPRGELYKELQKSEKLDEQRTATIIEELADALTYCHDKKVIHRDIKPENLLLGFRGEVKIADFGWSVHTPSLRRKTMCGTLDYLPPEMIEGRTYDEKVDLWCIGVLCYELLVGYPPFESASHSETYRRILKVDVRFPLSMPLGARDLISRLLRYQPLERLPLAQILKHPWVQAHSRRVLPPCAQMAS
Sequence of Phosphatidylinositol 4,5-bisphosphate 3-kinase catalytic subunit gamma isoform (P48736 whole entry, looked up, canonical isoform): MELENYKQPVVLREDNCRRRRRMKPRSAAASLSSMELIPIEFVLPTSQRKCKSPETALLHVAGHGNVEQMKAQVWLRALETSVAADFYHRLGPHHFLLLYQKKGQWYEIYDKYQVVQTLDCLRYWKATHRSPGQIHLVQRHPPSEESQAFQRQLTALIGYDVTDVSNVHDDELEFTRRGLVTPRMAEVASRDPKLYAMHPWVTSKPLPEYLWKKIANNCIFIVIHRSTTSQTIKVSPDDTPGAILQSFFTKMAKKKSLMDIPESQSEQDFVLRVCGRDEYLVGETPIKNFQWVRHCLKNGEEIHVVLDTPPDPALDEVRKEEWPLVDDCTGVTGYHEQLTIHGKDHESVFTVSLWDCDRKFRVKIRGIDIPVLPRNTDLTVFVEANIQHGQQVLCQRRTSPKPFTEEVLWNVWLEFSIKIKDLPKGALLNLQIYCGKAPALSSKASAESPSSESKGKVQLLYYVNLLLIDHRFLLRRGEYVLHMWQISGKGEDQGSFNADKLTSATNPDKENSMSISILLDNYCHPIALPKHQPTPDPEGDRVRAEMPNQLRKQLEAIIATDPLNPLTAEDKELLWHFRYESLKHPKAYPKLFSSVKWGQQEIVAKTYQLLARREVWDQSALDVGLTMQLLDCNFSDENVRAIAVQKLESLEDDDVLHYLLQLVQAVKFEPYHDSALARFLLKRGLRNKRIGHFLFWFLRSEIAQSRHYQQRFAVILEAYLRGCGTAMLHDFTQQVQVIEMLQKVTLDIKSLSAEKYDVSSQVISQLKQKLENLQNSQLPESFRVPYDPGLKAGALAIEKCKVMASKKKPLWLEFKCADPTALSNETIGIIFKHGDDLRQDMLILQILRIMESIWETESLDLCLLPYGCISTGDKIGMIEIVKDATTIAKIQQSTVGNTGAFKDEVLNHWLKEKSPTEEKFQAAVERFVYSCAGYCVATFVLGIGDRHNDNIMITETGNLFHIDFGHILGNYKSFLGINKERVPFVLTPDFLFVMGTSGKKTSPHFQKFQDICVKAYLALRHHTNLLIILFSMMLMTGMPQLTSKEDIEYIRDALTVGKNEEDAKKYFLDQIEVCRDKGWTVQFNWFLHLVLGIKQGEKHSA
Sequence of Dual specificity protein kinase CLK3 (P49761 whole entry): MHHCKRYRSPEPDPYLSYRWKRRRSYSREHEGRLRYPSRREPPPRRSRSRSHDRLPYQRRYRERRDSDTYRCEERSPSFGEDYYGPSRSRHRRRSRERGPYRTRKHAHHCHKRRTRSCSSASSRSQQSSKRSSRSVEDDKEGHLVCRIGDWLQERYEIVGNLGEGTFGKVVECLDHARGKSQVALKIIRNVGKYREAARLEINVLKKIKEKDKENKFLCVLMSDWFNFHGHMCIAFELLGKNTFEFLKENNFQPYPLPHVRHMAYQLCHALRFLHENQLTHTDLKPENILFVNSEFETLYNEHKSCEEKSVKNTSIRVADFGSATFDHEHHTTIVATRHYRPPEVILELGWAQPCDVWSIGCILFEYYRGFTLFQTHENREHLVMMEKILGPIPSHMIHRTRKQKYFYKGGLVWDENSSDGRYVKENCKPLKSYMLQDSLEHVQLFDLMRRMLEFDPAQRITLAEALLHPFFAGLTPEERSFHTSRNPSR
Sequence of MAP kinase-activated protein kinase 5 (Q8IW41 whole entry): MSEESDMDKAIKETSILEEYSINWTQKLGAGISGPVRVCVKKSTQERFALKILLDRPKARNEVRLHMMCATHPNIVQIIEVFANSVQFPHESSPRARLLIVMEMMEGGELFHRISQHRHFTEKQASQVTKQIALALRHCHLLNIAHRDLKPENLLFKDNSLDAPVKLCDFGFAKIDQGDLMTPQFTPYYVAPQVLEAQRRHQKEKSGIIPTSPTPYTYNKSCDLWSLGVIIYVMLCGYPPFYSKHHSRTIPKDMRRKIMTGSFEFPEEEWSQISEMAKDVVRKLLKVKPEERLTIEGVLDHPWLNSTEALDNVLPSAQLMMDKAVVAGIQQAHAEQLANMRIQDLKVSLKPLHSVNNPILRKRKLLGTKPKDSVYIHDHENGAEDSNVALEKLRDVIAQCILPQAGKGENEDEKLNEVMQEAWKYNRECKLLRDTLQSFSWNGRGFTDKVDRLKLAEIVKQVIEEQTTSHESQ
Sequence of Dual specificity protein kinase CLK4 (Q9HAZ1 whole entry): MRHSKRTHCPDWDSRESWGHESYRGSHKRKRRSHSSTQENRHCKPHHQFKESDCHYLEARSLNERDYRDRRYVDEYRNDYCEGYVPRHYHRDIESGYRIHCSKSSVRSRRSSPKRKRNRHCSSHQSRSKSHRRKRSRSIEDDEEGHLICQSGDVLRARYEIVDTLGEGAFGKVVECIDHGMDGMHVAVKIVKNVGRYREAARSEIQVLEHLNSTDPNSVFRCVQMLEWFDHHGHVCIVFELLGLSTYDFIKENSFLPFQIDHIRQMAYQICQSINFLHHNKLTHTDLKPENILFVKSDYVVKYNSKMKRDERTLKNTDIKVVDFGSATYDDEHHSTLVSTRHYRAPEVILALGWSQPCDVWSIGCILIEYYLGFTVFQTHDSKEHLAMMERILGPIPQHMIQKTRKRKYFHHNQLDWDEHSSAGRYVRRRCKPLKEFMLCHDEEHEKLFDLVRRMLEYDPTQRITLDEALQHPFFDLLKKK
Sequence of NUAK family SNF1-like kinase 2 (Q9H093 whole entry): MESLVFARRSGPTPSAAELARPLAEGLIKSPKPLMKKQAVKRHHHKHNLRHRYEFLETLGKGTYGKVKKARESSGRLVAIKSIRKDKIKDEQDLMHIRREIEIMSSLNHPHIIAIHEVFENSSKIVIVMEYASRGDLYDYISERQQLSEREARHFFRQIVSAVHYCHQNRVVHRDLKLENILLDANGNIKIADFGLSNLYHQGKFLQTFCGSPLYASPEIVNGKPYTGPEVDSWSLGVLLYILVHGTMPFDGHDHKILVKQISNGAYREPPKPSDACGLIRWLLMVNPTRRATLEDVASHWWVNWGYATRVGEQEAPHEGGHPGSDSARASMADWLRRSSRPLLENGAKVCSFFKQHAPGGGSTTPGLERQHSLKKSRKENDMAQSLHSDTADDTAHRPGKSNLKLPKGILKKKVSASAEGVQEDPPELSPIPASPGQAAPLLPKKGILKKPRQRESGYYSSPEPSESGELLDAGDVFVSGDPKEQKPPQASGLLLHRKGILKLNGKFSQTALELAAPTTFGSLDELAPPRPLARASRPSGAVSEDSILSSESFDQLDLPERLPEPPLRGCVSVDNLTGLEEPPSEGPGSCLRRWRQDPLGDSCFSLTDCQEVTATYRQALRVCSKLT

CC1=C(C(=O)Nc2cc3cn[nH]c3cc2F)C(c2ccc(C(F)(F)F)cc2)CC(=O)N1 (configuration not stated)
IC50 [1]: < 10000 nM
IC50 [2]: < 10000 nM

Cc1ccc(-c2ccc3c(ccc4sc5c(c43)NC[C@@H](C)NC5=O)n2)cn1
IC50 [3]: 159 nM
IC50 [4]: 159 nM
IC50 [5]: 159 nM

CCC(=O)Nc1cccc(Oc2nc(Nc3ccc(N4CCN(C)CC4)cc3OC)ncc2Cl)c1
EC50 [6]: > 3000 nM
EC50 [7]: > 3000 nM

CNC(=O)Nc1ccc2c(c1)[C@@]1(CC2)OC(=O)N(CC(=O)N(Cc2ccc(F)cc2)[C@@H](C)C(F)(F)F)C1=O [A-486]
IC50 (CREB-binding protein): > 10000 nM
IC50 [8]: > 10000 nM

C[C@H](c1ccnc(Nc2nc3ccc(-c4cc(N(C)C)ncn4)cc3[nH]2)c1)N1CCN(C(=O)CC(F)(F)F)CC1 [BAY-985]
IC50 [9]: 74 nM
IC50 [10]: 74 nM

FC(F)c1nc2ccccc2n1-c1nc(N2CCOCC2)nc(N2CCOCC2)n1
GI50 [11]: 28 nM
GI50 [12]: 28 nM
GI50 [13]: 28 nM
GI50 [14]: 28 nM

Clc1cc2c(NC3CCCC3)nnc(-c3ccncc3)c2cc1Cl
EC50 [15]: 262 nM
EC50 [16]: 262 nM

CCCOc1ccn2c(C(C)=O)cc(-c3cccc(OC)c3)c2c1
IC50 [17]: > 100000 nM

Cc1cnc(-c2cc(Cl)ccc2F)cc1-n1c(=O)n(CC(N)=O)c2cnccc21 [TP-008]
EC50 (Activin receptor type-1B): > 1000 nM

COc1cc2c(cc1OCCCN1CCCC1)N=C(N)C21CCC1
EC50 [18]: < 3000 nM

CN1CCN(C(=O)C(C)(C)c2ccc(C(=O)Nc3cn4cc(-c5ccncc5)ccc4n3)cc2)CC1 [T3-CLK]
EC50 [19]: < 500 nM
EC50 [20]: < 500 nM
EC50 [21]: < 500 nM

CCn1cc(-c2ccnc3[nH]c(-c4cccc(CN(C)C)c4)cc23)c(-c2ccc(NC(=O)N(C)C)cc2)n1 [GSK-1070916]
EC50 (Aurora kinase B): 46 nM
EC50 (Aurora kinase C): 46 nM

CCOC(=O)CCNc1cc(N2CCc3ccccc3CC2)nc(-c2ccccn2)n1
IC50 [22]: 9000 nM

C[C@H]1CC(=O)Nc2cc(C(=O)NCCC3CC3)ccc2N1C(=O)N1CC2CC2C1 (some centres not stated)
IC50 [23]: 183 nM
